Laboratory results from patent US20260022143A1, “Cyclic Peptide Inhibitors of IL-23” (JANSSEN PHARMACEUTICA NV, priority 2022, published 2026).
Positions of bridges follow the written chain, without caps; N, C: chain ends. Non-standard residues stand in square brackets, D forms with d. Residues, ends and D or L forms follow the SMILES beside them. *: point of attachment. Trp(7-(3-AcNH-Ph)) = CC(=O)Nc1cccc(-c2cccc3c(C[C@H](N)C(=O)O)c[nH]c23)c1; Me3N+(CH2)2O(CH2)2O(CH2)2CO = C[N+](C)(C)CCOCCOCCC(=O)*; CH2CH2OCH2CH2OCH2CH2NMe3+ = C[N+](C)(C)CCOCCOCC*; Trp(7-Me) = Cc1cccc2c(C[C@H](N)C(=O)O)c[nH]c12; dLys(Me3) = C[N+](C)(C)CCCC[C@@H](N)C(=O)O; 3Pal(5-Me) = Cc1cncc(C[C@H](N)C(=O)O)c1; 2Nal = N[C@@H](Cc1ccc2ccccc2c1)C(=O)O; AEF = NCCOc1ccc(C[C@H](N)C(=O)O)cc1; 3Pal = N[C@@H](Cc1cccnc1)C(=O)O; Ethyl(2-guanidino) = N=C(N)NCC*; Lys(Me) = CNCCCC[C@H](N)C(=O)O; Pen = CC(C)(S)[C@H](N)C(=O)O; Thp = NC1(C(=O)O)CCOCC1; X3 = C[N+](C)(C)CCCCC*; Sar = CNCC(=O)O

Assays:
IL-23R = target: T1, IL-23R (Homo sapiens, UniProt Q5VWK5); test: IL23R Reporter Assay; format: cell-based; details: HEK293 cells containing IL-23R, IL-12RP1 and STAT-inducible firefly luciferase reporter; 10 ng/mL IL-23 (EC90); 5 h at 37° C.; read-out: IL23R Reporter Assay
T1 construct: host or cells: HEK293
T1 sequence (Q5VWK5 24-629): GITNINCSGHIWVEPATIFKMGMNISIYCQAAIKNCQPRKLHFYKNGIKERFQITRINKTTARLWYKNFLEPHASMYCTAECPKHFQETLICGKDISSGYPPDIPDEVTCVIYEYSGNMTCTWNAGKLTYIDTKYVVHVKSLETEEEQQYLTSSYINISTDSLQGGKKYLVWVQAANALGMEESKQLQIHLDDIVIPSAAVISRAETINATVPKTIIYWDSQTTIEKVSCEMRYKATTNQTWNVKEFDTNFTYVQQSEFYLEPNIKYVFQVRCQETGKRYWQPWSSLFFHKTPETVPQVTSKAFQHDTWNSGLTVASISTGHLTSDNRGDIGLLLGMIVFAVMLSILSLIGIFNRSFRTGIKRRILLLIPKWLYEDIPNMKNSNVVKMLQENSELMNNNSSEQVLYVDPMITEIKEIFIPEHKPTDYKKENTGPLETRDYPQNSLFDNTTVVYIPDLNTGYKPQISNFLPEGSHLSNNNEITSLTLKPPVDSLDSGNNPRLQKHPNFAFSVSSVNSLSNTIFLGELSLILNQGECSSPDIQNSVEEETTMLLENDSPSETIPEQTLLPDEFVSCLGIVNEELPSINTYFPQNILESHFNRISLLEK

[1] = Exposed Polar Surface Area (EPSA); format: physicochemical; details: SFC on Chirex 3014 column; sample 1 mM DMSO stock; read-out: EPSA
Outline: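 Polarity measured by SFC on a Chirex 3014 column (35 °C, 4 mL/min) with methanol/ammonium formate in CO2 as gradient eluent. Retention times were normalised to EPSA (Å^2) against eight reference compounds.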

Row | Compound | IC50 (IL-23R) | EPSA [1]
1 | CC(=O)NCCCC[C@@H]1NC(=O)[C@H](Cc2c[nH]c3c(C)cccc23)NC(=O)[C@H]([C@@H](C)O)NC(=O)[C@H](CC(N)=O)NC(=O)[C@@H](NC(=O)[C@@H](CCCNC(=N)N)NC(=O)CCOCCOCC[N+](C)(C)C)C(C)(C)SSC(C)(C)[C@@H](C(=O)N[C@@H](Cc2ccc(OCCN)cc2)C(=O)N[C@@H](Cc2ccc3ccccc3c2)C(=O)NC2(C(=O)N[C@@H](CCCCNC(C)=O)C(=O)N[C@@H](CC(N)=O)C(=O)N[C@@H](Cc3cncc(C)c3)C(=O)N(C)CC(N)=O)CCOCC2)NC1=O [compound 541, cPEG3aCO-r-Pen(3)-N-T-7MeW-K(Ac)-Pen(3)-AEF-2Nal-THP-K(Ac)-N-5MePyridinAla-Sar-CONH2] ({Me3N+(CH2)2O(CH2)2O(CH2)2CO}-[dR][Pen]NT[Trp(7-Me)]K(Ac)[Pen][AEF][2Nal][Thp]K(Ac)N[3Pal(5-Me)][Sar]-NH2; disulfide 2-7) | 0.97 nM | 187 A^2
2 | CC(=O)NCCCC[C@@H]1NC(=O)[C@H](Cc2c[nH]c3c(C)cccc23)NC(=O)[C@H]([C@@H](C)O)NC(=O)[C@H](CC(N)=O)NC(=O)[C@@H](NC(=O)[C@@H](CCCNC(=N)N)NC(C)=O)C(C)(C)SSC(C)(C)[C@@H](C(=O)N[C@@H](Cc2ccc(OCCCCC[N+](C)(C)C)cc2)C(=O)N[C@@H](Cc2ccc3ccccc3c2)C(=O)NC2(C(=O)N[C@@H](CCC(=O)O)C(=O)N[C@@H](CC(N)=O)C(=O)N[C@@H](Cc3cncc(C)c3)C(=O)N(C)CC(N)=O)CCOCC2)NC1=O [compound 543, MeCO-r-Pen(3)-N-T-7MeW-K(Ac)-Pen(3)-TMAPF-2Nal-THP-E-N-5MePyridinAla-Sar-CONH2] (Ac-[dR][Pen]NT[Trp(7-Me)]K(Ac)[Pen]Y(X3)[2Nal][Thp]EN[3Pal(5-Me)][Sar]-NH2; disulfide 2-7) | 2 nM | 179 A^2
3 | CC(=O)N(C)CCCC[C@H](NC(=O)C1(NC(=O)[C@H](Cc2ccc3ccccc3c2)NC(=O)[C@H](Cc2ccc(OCCOCCOCC[N+](C)(C)C)cc2)NC(=O)[C@H]2NC(=O)[C@H](CCCCNC(=O)CCOCCOCC[N+](C)(C)C)NC(=O)[C@H](Cc3c[nH]c4c(C)cccc34)NC(=O)[C@H]([C@@H](C)O)NC(=O)[C@H](CC(=O)N(C)C)NC(=O)[C@@H](NC(=O)CCOCCOCC[N+](C)(C)C)C(C)(C)SSC2(C)C)CCOCC1)C(=O)N[C@@H](CC(N)=O)C(=O)N[C@@H](Cc1cccnc1)C(=O)N(C)CC(=O)N(C)C [compound 544, cPEG3aCO-Pen(3)-N(N(Me)2)-T-7MeW-K(cPEG3aCO)-Pen(3)-APEG3F-2Nal-THP-K(NMeAc)-N-3Pya-Sar-CON(Me)2] ({Me3N+(CH2)2O(CH2)2O(CH2)2CO}-[Pen]D(NMe2)T[Trp(7-Me)]K(Me3N+(CH2)2O(CH2)2O(CH2)2CO)[Pen]Y(CH2CH2OCH2CH2OCH2CH2NMe3+)[2Nal][Thp][Lys(Me)](Ac)N[3Pal][Sar]-NMe2; disulfide 1-6) | 2 nM | 157 A^2
4 | CC(=O)NCCCC[C@@H]1NC(=O)[C@H](Cc2c[nH]c3c(C)cccc23)NC(=O)[C@H]([C@@H](C)O)NC(=O)[C@H](CC(N)=O)NC(=O)[C@@H](NC(C)=O)C(C)(C)SSC(C)(C)[C@@H](C(=O)N[C@@H](Cc2ccc(OCCCCC[N+](C)(C)C)cc2)C(=O)N[C@@H](Cc2ccc3ccccc3c2)C(=O)NC2(C(=O)N[C@@H](CCCCNC(=O)CCCCCc3ccc(I)cc3)C(=O)N[C@@H](CC(N)=O)C(=O)N[C@@H](Cc3cccnc3)C(=O)N(C)CC(N)=O)CCOCC2)NC1=O [compound 546, MeCO-Pen(3)-N-T-7MeW-K(Ac)-Pen(3)-TMAPF-2Nal-THP-K(IPB)-N-3Pya-Sar-CONH2] | 7.2 nM | 168 A^2
5 | CC(=O)NCCCC[C@@H]1NC(=O)[C@H](Cc2c[nH]c3c(C)cccc23)NC(=O)[C@H]([C@@H](C)O)NC(=O)[C@H](CC(N)=O)NC(=O)[C@@H](NC(=O)CCCc2ccc(I)cc2)C(C)(C)SSC(C)(C)[C@@H](C(=O)N[C@@H](Cc2ccc(OCCCCC[N+](C)(C)C)cc2)C(=O)N[C@@H](Cc2ccc3ccccc3c2)C(=O)NC2(C(=O)N[C@@H](CCCCNC(C)=O)C(=O)N[C@@H](CC(N)=O)C(=O)N[C@@H](Cc3cccnc3)C(=O)N(C)CC(N)=O)CCOCC2)NC1=O [compound 547, IPBCO-Pen(3)-N-T-7MeW-K(Ac)-Pen(3)-TMAPF-2Nal-THP-K(Ac)-N-3Pya-Sar-CONH2] | 4.6 nM | 168 A^2
6 | CC(=O)N(C)CCCC[C@@H]1NC(=O)[C@H](C)NC(=O)[C@H]([C@@H](C)O)NC(=O)[C@H](CC(=O)N(C)C)NC(=O)[C@@H](NC(=O)CCOCCOCC[N+](C)(C)C)C(C)(C)SSC(C)(C)[C@@H](C(=O)N[C@@H](Cc2ccc(OCCOCCOCC[N+](C)(C)C)cc2)C(=O)N[C@@H](C)C(=O)NC2(C(=O)N[C@@H](CCCCN(C)C(C)=O)C(=O)N[C@@H](CC(N)=O)C(=O)N[C@@H](Cc3cccnc3)C(=O)N(C)CC(=O)N(C)C)CCOCC2)NC1=O [compound 557, cPEG3aCO-Pen(3)-N(N(Me)2)-T-A-K(NMeAc)-Pen(3)-APEG3F-A-THP-K(NMeAc)-N-3Pya-Sar-CON(Me)2] ({Me3N+(CH2)2O(CH2)2O(CH2)2CO}-[Pen]D(NMe2)TA[Lys(Me)](Ac)[Pen]Y(CH2CH2OCH2CH2OCH2CH2NMe3+)A[Thp][Lys(Me)](Ac)N[3Pal][Sar]-NMe2; disulfide 1-6) | > 16600 nM | 139 A^2
7 | CC(=O)NCCCC[C@@H]1NC(=O)[C@H](Cc2c[nH]c3c(C)cccc23)NC(=O)[C@H]([C@@H](C)O)NC(=O)[C@H](CC(N)=O)NC(=O)[C@@H](NC(=O)[C@@H](CCCNC(=N)N)NC(C)=O)C(C)(C)SSC(C)(C)[C@@H](C(=O)N[C@@H](Cc2ccc(OCCCCC[N+](C)(C)C)cc2)C(=O)N[C@@H](Cc2ccc3ccccc3c2)C(=O)NC2(C(=O)N[C@@H](CCCCNC(C)=O)C(=O)N[C@@H](CC(N)=O)C(=O)N[C@@H](Cc3cccnc3)C(=O)N(C)CC(N)=O)CCOCC2)NC1=O [compound 558, MeCO-r-Pen(3)-N-T-7MeW-K(Ac)-Pen(3)-TMAPF-2Nal-THP-K(Ac)-N-3Pya-Sar-CONH2] (Ac-[dR][Pen]NT[Trp(7-Me)]K(Ac)[Pen]Y(X3)[2Nal][Thp]K(Ac)N[3Pal][Sar]-NH2; disulfide 2-7) | 4.1 nM | 174 A^2
8 | CNC(=O)C[C@H](NC(=O)[C@H](CCCCN(C)C(C)=O)NC(=O)C1(NC(=O)[C@H](Cc2ccc3ccccc3c2)NC(=O)[C@H](Cc2ccc(OCCCCC[N+](C)(C)C)cc2)NC(=O)[C@H]2NC(=O)[C@H](CCCCN(C)C(C)=O)NC(=O)[C@H](Cc3c[nH]c4c(C)cccc34)NC(=O)[C@H]([C@@H](C)O)NC(=O)[C@H](CC(=O)N(C)C)NC(=O)[C@@H](NC(=O)CCOCCOCC[N+](C)(C)C)C(C)(C)SSC2(C)C)CCOCC1)C(=O)N[C@@H](Cc1cccnc1)C(=O)N(C)CC(=O)N(C)C [compound 560, cPEG3aCO-Pen(3)-N(N(Me)2)-T-7MeW-K(NMeAc)-Pen(3)-TMAPF-2Nal-THP-k(NMeAc)-N(NMe)-3Pya-Sar-CON(Me)2] ({Me3N+(CH2)2O(CH2)2O(CH2)2CO}-[Pen]D(NMe2)T[Trp(7-Me)][Lys(Me)](Ac)[Pen]Y(X3)[2Nal][Thp][Lys(Me)](Ac)D(NHMe)[3Pal][Sar]-NMe2; disulfide 1-6) | 3.4 nM | 154 A^2
9 | CC(=O)NCCCC[C@@H]1NC(=O)[C@H](Cc2c[nH]c3c(-c4cccc(NC(C)=O)c4)cccc23)NC(=O)[C@H]([C@@H](C)O)NC(=O)[C@H](CC(N)=O)NC(=O)[C@@H](NC(=O)[C@@H](CCCC[N+](C)(C)C)NC(C)=O)C(C)(C)SSC(C)(C)[C@@H](C(=O)N[C@@H](Cc2ccc(OCCNC(=N)N)cc2)C(=O)N[C@@H](Cc2ccc3ccccc3c2)C(=O)NC2(C(=O)N[C@@H](CCC(=O)O)C(=O)N[C@@H](CC(N)=O)C(=O)N[C@@H](Cc3cccnc3)C(=O)N(C)CC(N)=O)CCOCC2)NC1=O [compound 563, MeCO-k(Me)3-Pen(3)-N-T-7(3NAcPh)W-K(Ac)-Pen(3)-AEF(G)-2Nal-THP-E-N-3Pya-Sar-CONH2] (Ac-[dLys(Me3)][Pen]NT[Trp(7-(3-AcNH-Ph))]K(Ac)[Pen]Y(Ethyl(2-guanidino))[2Nal][Thp]EN[3Pal][Sar]-NH2; disulfide 2-7) | 1.5 nM | 194 A^2
10 | CC(=O)N(C)CCCC[C@@H]1NC(=O)[C@H](Cc2c[nH]c3ccccc23)NC(=O)[C@H]([C@@H](C)O)NC(=O)[C@H](CC(=O)N(C)C)NC(=O)[C@@H](NC(=O)CCOCCOCC[N+](C)(C)C)C(C)(C)SSC(C)(C)[C@@H](C(=O)N[C@@H](Cc2ccc(OCCOCCOCC[N+](C)(C)C)cc2)C(=O)N[C@@H](Cc2c[nH]c3ccccc23)C(=O)NC2(C(=O)N[C@@H](CCCCN(C)C(C)=O)C(=O)N[C@@H](CC(N)=O)C(=O)N[C@H]3Cc4cnccc4N(CC(=O)N(C)C)C3=O)CCOCC2)NC1=O [compound 564, cPEG3aCO-Pen(3)-N(N(Me)2)-T-W-K(NMeAc)-Pen(3)-APEG3F-W-THP-K(NMeAc)-N-3Pya-Sar-CON(Me)2] | 180 nM | 153 A^2
